# “Also recorded” adds a separate entry of the source.
# Legend:
# [1] = as stated for U.S. Pat. No. 6,518,456; cited from earlier work
# [2] = Solubility of gabapentin in anhydrous extraction solvents; format: physicochemical
# Text: Thus, the solution of gabapentin in cresol after extraction may be anhydrified, for example, by distillation so as to crystallize the undesired residual salts leaving the gabapentin itself in solution. Said solution of gabapentin in cresol obtained from the removal of the salts by filtration and/or by contro-extraction with water has a chloride content of a few tens of ppm.
# The same technique cannot be applied to the corresponding solution in n-butanol of the prior art, since the solubility of gabapentin in the anhydrous solvent is very low; as a result the butanolic solution of gabapentin extraction from the Hofmann end solution, when subjected to anhydrification reaction, leads to the co-precipitation of gabapentin and of these same salts, thus, with no advantage from the point of view of product purity.
compound,measurement,setting,value
"NCC1(CC(=O)O)CCCCC1 [gabapentin, 1-(aminomethyl)-cyclohexaneacetic acid]",isoelectric point (pH),[1],7.2 pH
same,solubility,[2]; in anhydrous cresol,about 20%
same,solubility,[2]; in anhydrous n-butanol,virtually zero; also recorded: very low
